Results from patent publication US20200239530A1, “COMPOUNDS AND METHODS OF MODULATING PROTEIN DEGRADATION” (Vividion Therapeutics, Inc., priority 2017, published 2020).

How the values were obtained:
PML Protein PML = target: T1, PML Protein PML (Homo sapiens, UniProt P29590); assay: Cysteine liganding, probe competition; format: binding
T1 construct: Cells were resuspended in cold PBS on ice and sonicated with a probe sonicator to achieve lysis; endogenous in cells
T1 sequence (P29590 1-882): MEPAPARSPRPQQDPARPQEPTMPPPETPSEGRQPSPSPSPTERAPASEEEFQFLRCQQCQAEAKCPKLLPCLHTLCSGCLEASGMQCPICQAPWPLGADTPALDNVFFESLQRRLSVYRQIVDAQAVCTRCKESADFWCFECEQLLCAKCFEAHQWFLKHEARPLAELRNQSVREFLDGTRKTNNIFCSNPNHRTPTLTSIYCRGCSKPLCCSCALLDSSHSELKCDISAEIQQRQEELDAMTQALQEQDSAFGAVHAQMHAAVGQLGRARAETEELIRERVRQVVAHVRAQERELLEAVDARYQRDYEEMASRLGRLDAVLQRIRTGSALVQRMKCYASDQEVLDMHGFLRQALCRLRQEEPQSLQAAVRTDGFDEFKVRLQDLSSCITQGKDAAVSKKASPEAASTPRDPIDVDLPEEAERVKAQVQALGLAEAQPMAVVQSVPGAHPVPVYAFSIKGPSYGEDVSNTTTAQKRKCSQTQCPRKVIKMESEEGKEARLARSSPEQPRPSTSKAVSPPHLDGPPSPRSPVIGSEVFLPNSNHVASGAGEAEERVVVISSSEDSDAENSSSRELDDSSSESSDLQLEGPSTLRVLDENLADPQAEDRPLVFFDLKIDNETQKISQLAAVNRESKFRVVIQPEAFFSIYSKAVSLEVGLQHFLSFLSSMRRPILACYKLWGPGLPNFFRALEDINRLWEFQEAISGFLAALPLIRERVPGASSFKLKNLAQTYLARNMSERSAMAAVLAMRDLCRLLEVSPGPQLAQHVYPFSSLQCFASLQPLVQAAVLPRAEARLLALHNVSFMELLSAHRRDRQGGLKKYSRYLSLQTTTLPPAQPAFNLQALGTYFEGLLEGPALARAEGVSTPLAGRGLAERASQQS
Procedure, shortened: (§1)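 Probe competition in native proteome: 5 mg/ml lysate, compound 1 hr 25° C, then desthiobiotin iodoacetamide (10 mM stock) 1 hr 25° C; acetone ppt, urea/DTT reduction, iodoacetamide alkylation, trypsin, streptavidin pull-down.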

[1] = target: T2, L2HGDH L-2-hydroxyglutarate dehydrogenase, mitochondrial (Homo sapiens, UniProt Q9H9P8); assay: Cysteine liganding, probe competition; format: binding
T2 construct: Cells were resuspended in cold PBS on ice and sonicated with a probe sonicator to achieve lysis; endogenous in cells
T2 sequence (Q9H9P8 52-463): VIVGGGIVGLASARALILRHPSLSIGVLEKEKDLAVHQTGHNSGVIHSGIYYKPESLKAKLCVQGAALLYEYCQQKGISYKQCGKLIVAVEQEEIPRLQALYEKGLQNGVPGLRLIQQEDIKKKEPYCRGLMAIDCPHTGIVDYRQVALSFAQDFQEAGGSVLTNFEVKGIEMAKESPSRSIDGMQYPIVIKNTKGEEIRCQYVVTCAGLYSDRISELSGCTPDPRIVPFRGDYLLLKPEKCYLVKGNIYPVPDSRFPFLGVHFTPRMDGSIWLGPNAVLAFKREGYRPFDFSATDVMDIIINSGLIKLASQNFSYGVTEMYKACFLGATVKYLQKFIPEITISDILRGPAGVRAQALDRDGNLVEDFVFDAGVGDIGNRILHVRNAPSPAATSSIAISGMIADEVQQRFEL
Procedure, shortened: as §1

## COc1ccc2c(c1)CCCN2C(=O)CCl [KB02]
PML Protein PML; PML Res# 479, uniprot P29590
  Liganded: YES
PML Protein PML; PML Res# 484, uniprot P29590
  Liganded: YES
[1]; L2HGDH Res# 187, uniprot Q9H9P8
  Liganded: YES

## O=C(CCl)Nc1cc(C(F)(F)F)cc(C(F)(F)F)c1 [KBO3]
PML Protein PML; UniProt P29590, 500 uM
  KB03_500 uM_percent_inhibition: 69%
[1]; uniprot Q9H9P8
  100 Max: 39.03
  100 ave: 26.9925
  500 Max: 70.21
  500 ave: 67.435
